Source: patent US6797728B2, “Use of intracellular calcium chelators to increase surfactant secretion in the lungs” (Thomas Jefferson University, priority 2000, dated 2004)
Like-named read-outs stand apart in the source and are kept apart here.

Columns and labels:
alveolar type II cells [1] = assay: Surfactant secretion assay (secretion of 3H-labeled phospholipid by type II cells); assay type: cell-based, rat; conditions: for effect of calcium depletion on secretagogue-stimulated PL secretion: cells in Ca2+-free medium overnight and during the 2 h assay, ATP 500 μM, TG 10 μM, Io 1 μM, PMA 50 ng/ml, BAPTA-AM 25 μM; for effect of re-adding calcium after overnight depletion on secretagogue-induced PL secretion: Ca2+ added back to 1.64 mM at start of the 2 hr secretion assay; for effect of removing extracellular Ca2+ during the assay on secretagogue-elicited surfactant secretion: normal medium overnight, Ca2+-free medium for the 2 h assay, FIG. 4; for % PL secreted: BAPTA 25 μM, SP-A 100 ng/ml, alone or together, percentage of 3H-labeled phospholipid secreted, no additions 8.33
Experimental: Freshly isolated type II cells were prepared according to standard techniques, originally described by Dobbs (Dobbs, et al, AM. Rev. Respir. Dis. 134, 141-145, 1986), and later modified by Sen and Chander (Sen and Chander, Biochem. J. 298: 681-687, 1994). The use of these techniques has been previously reported. (Strayer, et al, Ex. Cell Res. 226: 90-97, 1996; Strayer, et al, Rec. Signal Transd. 7: 111-120, 1997). Briefly, lungs of anesthetized rats were cleared of blood and treated with elastase endotracheally (Worthington Biochemical, Freehold, N.J.) to obtain free cells. The cells were separated from lung debris and plated on bacteriological plates coated with normal rat IgG (Sigma Chemical Co., St. Louis, Mo.). After 1 hr, free cells were collected by panning, pelleted, and resuspended (0.8×10^6 cells/ml) in minimum essential medium (MEM)+10% fetal bovine serum (FCS, Life Technologies, Gaithersburg, Md.).
Secretion studies were performed as described by Sen and Chander. (Sen and Chander, Biochem. J. 298: 681-687, 1994). Briefly, 0.8×10^6 alveolar type II cells were cultured for 18 h in MEM with 10% FBS+0.5 μCi of [methyl-^3H]-choline (Amersham, Arlington Heights, Ill.) to label cellular phospholipids (PL) metabolically. Cells were washed to remove non-adherent cells and unincorporated radioactivity. After replacing this medium with fresh MEM, plates were incubated for 15 min. SP-A (100 ng/ml) was added to selected plates, followed by incubation for an additional 15 min.; secretagogues were then added at the appropriate concentrations [control (no addition), ATP (500 μM), TG (10 μM), ionomycin (1 μM), PMA (50 ng/ml)]. At this point (t=0) in each experiment, some samples were removed for analysis of secreted labeled lipids to establish a baseline. Incubation proceeded for an additional 2 h for all other plates. Following this incubation, media were removed and centrifuged (15 min., 300×g) to pellet cells that detached during incubation. These cells were later pooled with those recovered from the plates. Lipids from both media and plates were extracted (Sen and Chander, Biochem. J. 298: 681-687, 1994) after adding [methyl-^14C]-DPPC (Amersham, Arlington Heights, Ill.) as a recovery standard, and egg phosphatidylcholine (Sigma Chemical Co., St. Louis, Mo.) as a carrier lipid. Recovered lipids were dissolved in Scintiverse II fluid (Fisher Scientific, Pittsburgh, Pa.) and the radioactivity of these lipid extracts measured with a scintillation counter (Beckman Instruments, Fullerton, Calif.). ^3H-labeled phospholipid recovery was normalized to recovery of [methyl-^14C]-DPPC. Phospholipid secretion was determined as percent secretion=(cpm in lipids recovered from media×100)/(cpm in lipids recovered from media and plates).

[2] = tested on: [Ca^2+]l in type II cells; assay: ER (lumenal) calcium concentration, fura2ff fluorescence with Mn2+ quench; assay type: cell-based, rat; conditions: fura2ff 340/380 nm ratio, Mn2+ added, FIG. 7
Experimental: Type II cells were prepared as described and plated on glass coverslips that had been pretreated with poly-L-lysine (Sigma, 0.01%, 20° C., 15 mins). After incubation overnight at 37° C. in MEM-10% FCS, the cells were washed three times with serum-free MEM and once with loading buffer (121 mM NaCl, 4.7 mM KCl, 1.2 mM KH2P04, 1.2 mM MgSO4, 2% BSA, 10 mM glucose, 20 mM HEPES, 2 mM CaCl2). The cells were loaded in loading buffer containing 10 μM Fura-2FF(AM) (Teflabs, Austin, Tex.) and 0.06% Pluronic Acid (Molecular Probes, Inc.) for two hours with shaking at 37° C. The coverslip was washed in calcium-free imaging buffer (121 mM NaCl, 4.7 mM KCl, 1.2 mM KH2PO4, 1.2 mM MgSO4, 10 mM glucose, 20 mM HEPES), inserted into a thermostatically regulated chamber (37° C.), and mounted on an inverted fluorescence microscope in 1 ml of imaging buffer. Fluorescence imaging following excitation at 340 nm and 380 nm was performed (supra).
During imaging MnCl2 was added at time=0 to a final concentration of 500 μM followed by either SP-A, ionomycin, or TG (final concentrations 100 ng/ml, 1 μM and 4 μM respectively).
Decreases in [Ca^2+]l, rather than increases in [Ca^2+]i, were hypothesized to be the critical regulator of surfactant secretion by all secretagogues, with the exception of PMA. This theory predicts that BAPTA-AM, and other calcium-dependent secretagogues, would decrease [Ca^2+]l, but that PMA would not. Thus, type II cells were loaded with fura2ff. This fluorophore has a much lower affinity for calcium in the μM range than fura2 does, and is therefore used to assess changes in [Ca^2+]l. Type II cells were also treated with Mn^2+, which binds cytoplasmic fura2ff and prevents its binding to Ca^2+. (Dorn, et al, Br. J. Pharmacol. 97: 163-170, 1989; Kuroki, et al, Biochem. J. 115: 115-119, 1991; Miyata, et al, Am. J. Physiol. 261: H1123-H1134, 1991). Any changes in the lumenal free calcium concentration were measured as changes in the ratio of fura2ff excitation at 340 nm to that at 380 nm. […] PMA had no effect.

[3] = read-out: affinity of BAPTA for calcium; cited from earlier work
[4] = tested on: [Ca^2+]i in type II cells; assay: Cytosol free calcium concentration, fura2 digital imaging fluorescence microscopy; assay type: cell-based, rat; conditions: fura2 340/380 nm ratio, compared to mock-treated cells
Experimental: 10^6 freshly isolated type II cells were added to 35 mm tissue culture plates, each containing a polylysine (Sigma Chemical Co.) coated 25 mm diameter coverslip and incubated (37° C., 5% CO2) for at least 2 hr. Twenty min before use, Fura2/AM (Molecular Probes) was added (final concentration, 3 μM) to each coverslip. After Fura2 loading, the coverslips were washed with cell incubation buffer (121 mM NaCl, 4.7 mM KCl, 1.2 mM KH2PO4, 1.2 mM MgSO4, 2 mM CaCl2, 10 mM glucose, 5 mM NaHCO3, 0.2% BSA, and 10 mM HEPES/NaOH, pH 7.4) and inserted into a thermostatically regulated chamber (37° C.). Cell incubation buffer was added and the whole assembly placed on the stage of a Nikon Diaphot inverted microscope. At appropriate times (see infra), secretagogues in the appropriate concentration (see supra) were added. Fluorescence images of the cells were collected by exciting the cells alternately at 340 and 380 nm and measuring emission at 500 nm using a charge-coupled device camera (Photometrics, Inc.) as described previously. (Rooney, et al, Biol. Chem 264: 17131-17141, 1989). Image acquisition and analysis were done with Macintosh computers running customized image-processing software. The ratio (340/380) of Fura2 excitation was calibrated to [Ca^2+]i as described. (Rooney, et al, Biol. Chem 264: 17131-17141, 1989; Grynkiewicz, et al, J. Biol. Chem. 260: 3440-3450, 1985).

type II cells [5] = tested on: type II cells
Experimental: (§1) Viability of type II cells was tested both by trypan blue exclusion, and by tetrazolium/formazan assay (Promega Corp., Madison, Wis.), which measures mitochondrial dehydrogenases. These enzymes are only present in active form in living cells and are absent in nonviable cells. […] For such studies, an assay solution containing the tetrazolium compound (3-(4,5-dimethylthiazol-2-yl)-5-(3-carboxymethoxyphenyl)-2-(4-sulfonyl)-2H-tetrazolium, inner salt; MTS) and an electron-coupling reagent (phenazine methosulfate; PMS) in MEM is added to the cells. […] Correction was made for the small effect of BAPTA itself on this reaction by running a parallel assay on plates with no cells.
(§2) In these studies, cellular viability was determined in two ways. Viable cells enumerated by counting trypan blue-excluding cells. […] In addition, cellular viability in BAPTA-AM-treated cultures was measured using the tetrazolium/formazan assay for mitochondrial dehydrogenase.

alveolar type II cells [6] = assay: Surfactant secretion assay (secretion of 3H-labeled phospholipid by type II cells); assay type: cell-based, rat; conditions: within 4 hours of treatment; control cells release about 7%
type II cells [7] = tested on: type II cells; remark: listed apart in the source
Experimental: as §1, §2

type II cells [8] = assay: Type II cell viability by trypan blue exclusion; conditions: at the concentrations of FIG. 2; compared to each other and to untreated type II cells
Experimental: as §1, §2

| Compound | effect of calcium depletion on secretagogue-stimulated PL secretion (alveolar type II cells [1]) | effect on lumenal free calcium concentration [Ca^2+]l [2] | effect of re-adding calcium after overnight depletion on secretagogue-induced PL secretion (alveolar type II cells [1]) | effect of removing extracellular Ca2+ during the assay on secretagogue-elicited surfactant secretion (alveolar type II cells [1]) | other results |
| --- | --- | --- | --- | --- | --- |
| Nc1ncnc2c1ncn2[C@@H]1O[C@H](COP(=O)(O)OP(=O)(O)OP(=O)(O)O)[C@@H](O)[C@H]1O [ATP] | prevented | – | – | – | – |
| O=C(O)CN(CC(=O)O)c1ccccc1OCCOc1ccccc1N(CC(=O)O)CC(=O)O [BAPTA, 1,2-bis(2-aminophenoxy)ethane-N,N,N, N-tetraacetic acid] | prevented BAPTA secretagogue activity | decreased [Ca^2+]l | restored | not significantly altered | Kd [3]: 160 nM; surfactant secretion at 5 μM BAPTA (alveolar type II cells [1]; dose-response studies, concentration range of 5 μM): below the threshold; concentrations at which BAPTA stimulates surfactant secretion (powerful secretagogue) (alveolar type II cells [1]; dose-response, FIG. 2): 25 to 100 µM |
| CC(=O)OCOC(=O)CN(CC(=O)OCOC(C)=O)c1ccccc1OCCOc1ccccc1N(CC(=O)OCOC(C)=O)CC(=O)OCOC(C)=O [BAPTA-AM, 1,2-bis(2-aminophenoxy)ethane-N,N,N, N-tetraacetic acid acetoxymethyl ester] | – | – | – | – | effect on cytosol free calcium concentration [Ca^2+]i [4]: caused [Ca^2+]i to decrease somewhat; viability of treated type II cells (tetrazolium/formazan) (type II cells [5]): does not differ from that of control cells; stored surfactant released (alveolar type II cells [6]): about ⅔; % PL secreted (alveolar type II cells [1]): 15.47%; effect on cell viability (trypan blue-excluding cells) (type II cells [7]): Neither BAPTA-AM nor TPEN at these concentrations had any effect on cell viability |
| C[C@H](CCC(=O)O)C[C@H](C)C[C@H](C)C(=O)/C=C(\O)[C@H](C)C[C@H](C)C/C=C/[C@@H](C)[C@@H](O)[C@@H](C)[C@@H](O)C[C@@H]1CC[C@@](C)([C@H]2CC[C@@](C)([C@@H](C)O)O2)O1 [Io, ionomycin] | prevented | decreased [Ca^2+]l | restored | not significantly altered | – |
| CCCCCCCCCCCCCC(=O)O[C@@H]1[C@@H](C)[C@@]2(O)[C@@H](C=C(CO)C[C@]3(O)C(=O)C(C)=C[C@@H]23)[C@@H]2C(C)(C)[C@]12OC(C)=O [PMA, phorbol 12-myristate 13-acetate] | did not alter | no effect | increased PMA-induced secretion, but this effect was not statistically significant | Statistically significant but small decreases | effect on cytosol free calcium concentration [Ca^2+]i [4]: did not alter [Ca^2+]i |
| C/C=C(/C)C(=O)O[C@H]1C(C)=C2[C@H]([C@@H]1OC(=O)CCCCCCC)[C@@](C)(OC(C)=O)C[C@H](OC(=O)CCC)[C@@]1(O)[C@H]2OC(=O)[C@@]1(C)O [TG, thapsigargin] | partially inhibited | – | restored | Statistically significant but small decreases | – |
| c1ccc(CN(CCN(Cc2ccccn2)Cc2ccccn2)Cc2ccccn2)nc1 [TPEN, N,N,N′,N′-tetrakis-(2-pyridylmethyl) ethylenediamine] | – | – | – | – | effect on cell viability (trypan blue-excluding cells) (type II cells [8]): Neither BAPTA-AM nor TPEN at these concentrations had any effect on cell viability; secretagogue activity (alveolar type II cells [1]; TPEN up to 150 μM, FIG. 2): no secretagogue activity |
| surfactant-associated protein-A [SP-A] | – | increased [Ca^2+]l | – | – | % PL secreted (alveolar type II cells [1]): 4.98%; BAPTA-induced surfactant secretion after SP-A pretreatment (alveolar type II cells [1]; SP-A pretreatment, then BAPTA-AM loading concentration 25 μM, versus cells not exposed to SP-A): significantly less surfactant secretion |
